Key:
[1] = system: MOLT-4; test: Cell viability assay (tetrazolium-based MTS) in MOLT4 cells; conditions: 48 h incubation
Experimental: Cancer cells from acute lymphoblastic leukemia (MOLT4) were incubated with increasing concentrations of compounds of Examples 1-9 for 48 h. Cell viability was measured by tetrazolium-based MTS assay. 5×10^4 to 1×10^5 suspension cells or 3×10^3 to 5×10^3 adherent cells were seeded and treated in 96-well plates for 48 h. The EC50 values of individual agents were calculated with GraphPad Prism.

[2] = system: MOLT4 cells; test: Protein degradation assay in MOLT4 cells (western blot); format: cell-based; conditions: MOLT4 cells incubated with various concentrations; the FIGURE
Experimental: MOLT4 cells and human platelets can be incubated with increasing concentrations of test compounds for 16 h. The cells can be harvested and lysed in RIPA lysis buffer supplemented with protease and phosphatase inhibitor cocktails. An equal amount of protein (20 μg/lane) can be resolved on a pre-cast 4-20% SDS-PAGE gel. Proteins can be subsequently transferred to NOVEX PVDF membranes by electrophoresis. The membranes can be blocked in blocking buffer (5% non-fat dry milk in TBS-T), and can be incubated with primary antibodies (at optimized concentrations) overnight at 4° C. After washing in TBS-T, the membranes can be incubated with an appropriate HRP-conjugated secondary antibody for 1 h at room temperature. After extensive washing, the proteins of interest can be detected with ECL western blotting detection reagents and recorded with autoradiography (Pierce Biotech, Rockford, IL, USA). The primary antibodies for Bcl-xL (Cat #2762), Bcl-2 (Cat #2872), Mcl-1 (Cat #5453) and β-actin (Cat #4970) can be purchased from Cell Signaling technology. The relative band intensity can be measured using ImageJ software and normalized to b-actin. The DC50 (concentration with 50% degradation) can be calculated using GraphPad Prism.

[3] = Homo sapiens, MOLT-4, MOLT4 acute lymphoblastic leukemia cells
[4] = MOLT4 acute lymphoblastic leukemia cells

Cc1c(-c2ccc(N3CCc4cccc(C(=O)Nc5nc6ccccc6s5)c4C3)nc2C(=O)NCCOCCOCCOCCNc2cccc3c2C(=O)N(C2CCC(=O)NC2=O)C3=O)cnn1CC12CC3CC(CC(C3)C1)C2 (stereo not shown) [degrader #8, 2-(5-(1-(adamantan-1-ylmethyl)-5-methyl-1H-pyrazol-4-yl)-6-((2-(2-(2-(2-((2-(2,6-dioxopiperidin-3-yl)-1,3-dioxoisoindolin-4-yl)amino)ethoxy)ethoxy)ethoxy)ethyl)carbamoyl)pyridin-2-yl)-N-(benzo[d]thiazol-2-yl)-1,2,3,4-tetrahydroisoquinoline-8-carboxamide] was tested, and the EC50 [1, 3] was < 10 nM and the “protein degradation (western blot)” value [2] was “protein degradation”.

For Cc1c(-c2ccc(N3CCc4cccc(C(=O)Nc5nc6ccccc6s5)c4C3)nc2C(=O)NS(=O)(=O)CCCn2cc(COCCOCCNc3cccc4c3C(=O)N(C3CCC(=O)NC3=O)C4=O)nn2)cnn1CC12CC3CC(CC(C3)C1)C2 (stereo not shown) [degrader #1, 2-(5-(1-(adamantan-1-ylmethyl)-5-methyl-1H-pyrazol-4-yl)-6-(((3-(4-((2-(2-((2-(2,6-dioxopiperidin-3-yl)-1,3-dioxoisoindolin-4-yl)amino)ethoxy)ethoxy)methyl)-1H-1,2,3-triazol-1-yl)propyl)sulfonyl)carbamoyl)pyridin-2-yl)-N-(benzo[d]thiazol-2-yl)-1,2,3,4-tetrahydroisoquinoline-8-carboxamide], the EC50 [1, 3] was 10 to 100 nM.

With Cc1c(-c2ccc(N3CCc4cccc(C(=O)Nc5nc6ccccc6s5)c4C3)nc2C(=O)NS(=O)(=O)CCCn2cc(COCCOCCNc3cccc4c3C(=O)N(C3CCC(=O)NC3=O)C4=O)nn2)cc(C#N)n1CC12CC3CC(CC(C3)C1)C2 (stereo not shown) [degrader #2, 2-(5-(1-(adamantan-1-ylmethyl)-5-cyano-2-methyl-1H-pyrrol-3-yl)-6-(((3-(4-((2-(2-((2-(2,6-dioxopiperidin-3-yl)-1,3-dioxoisoindolin-4-yl)amino)ethoxy)ethoxy)methyl)-1H-1,2,3-triazol-1-yl)propyl)sulfonyl)carbamoyl)pyridin-2-yl)-N-(benzo[d]thiazol-2-yl)-1,2,3,4-tetrahydroisoquinoline-8-carboxamide] the EC50 [1, 3] was 10 to 100 nM.

Molecule Cc1ncsc1-c1ccc([C@H](C)NC(=O)[C@@H]2C[C@@H](O)CN2C(=O)[C@@H](NC(=O)CCCCCCCCCCS(=O)(=O)NC(=O)c2nc(N3CCc4cccc(C(=O)Nc5nc6ccccc6s5)c4C3)ccc2-c2cnn(CC34CC5CC(CC(C5)C3)C4)c2C)C(C)(C)C)cc1 [degrader #16, 2-(5-(1-(adamantan-1-ylmethyl)-5-methyl-1H-pyrazol-4-yl)-6-(((11-(((S)-1-((2S,4R)-4-hydroxy-2-(((S)-1-(4-(4-methylthiazol-5-yl)phenyl)ethyl)carbamoyl)pyrrolidin-1-yl)-3,3-dimethyl-1-oxobutan-2-yl)amino)-11-oxoundecyl)sulfonyl)carbamoyl)pyridin-2-yl)-N-(benzo[d]thiazol-2-yl)-1,2,3,4-tetrahydroisoquinoline-8-carboxamide] has an EC50 [1, 3] of 10 to 100 nM.

Molecule Cc1c(-c2ccc(N3CCc4cccc(C(=O)Nc5nc6ccccc6s5)c4C3)nc2C(=O)O)cnn1CC12CC3CC(C1)CC(C(=O)NCCOCCNc1cccc4c1C(=O)N(C1CCC(=O)NC1=O)C4=O)(C3)C2 (stereo not shown) [degrader #39, 6-(8-(benzo[d]thiazol-2-ylcarbamoyl)-3,4-dihydroisoquinolin-2(1H)-yl)-3-(1-(((1r,3r)-3-((2-(2-((2-(2,6-dioxopiperidin-3-yl)-1,3-dioxoisoindolin-4-yl)amino)ethoxy)ethyl)carbamoyl)adamantan-1-yl)methyl)-5-methyl-1H-pyrazol-4-yl)picolinic acid] has an EC50 [1, 4] of 10 to 100 nM.

For Cc1c(-c2ccc(N3CCc4cccc(C(=O)Nc5nc6ccccc6s5)c4C3)nc2C(=O)NCCOCCOCCOCCCc2ccc3c(c2)C(=O)N(C2CCC(=O)NC2=O)C3=O)cnn1CC12CC3CC(CC(C3)C1)C2 (stereo not shown) [degrader #31, 2-(5-(1-(adamantan-1-ylmethyl)-5-methyl-1H-pyrazol-4-yl)-6-((2-(2-(2-(3-(2-(2,6-dioxopiperidin-3-yl)-1,3-dioxoisoindolin-5-yl)propoxy)ethoxy)ethoxy)ethyl)carbamoyl)pyridin-2-yl)-N-(benzo[d]thiazol-2-yl)-1,2,3,4-tetrahydroisociuinoline-8-carboxamide], the EC50 [1, 4] was < 10 nM.

In the case of Cc1ncsc1-c1ccc([C@H](C)NC(=O)[C@@H]2C[C@@H](O)CN2C(=O)[C@@H](NC(=O)CCCCS(=O)(=O)NC(=O)c2nc(N3CCc4cccc(C(=O)Nc5nc6ccccc6s5)c4C3)ccc2-c2cnn(CC34CC5CC(CC(C5)C3)C4)c2C)C(C)(C)C)cc1 [degrader #10, 2-(5-(1-(adamantan-1-ylmethyl)-5-methyl-1H-pyrazol-4-yl)-6-(((5-(((S)-1-((2S,4R)-4-hydroxy-2-(((S)-1-(4-(4-methylthiazol-5-yl)phenyl)ethyl)carbamoyl)pyrrolidin-1-yl)-3,3-dimethyl-1-oxobutan-2-yl)amino)-5-oxopentyl)sulfonyl)carbamoyl)pyridin-2-yl)-N-(benzo[d]thiazol-2-yl)-1,2,3,4-tetrahydroisoquinoline-8-carboxamide], the EC50 [1, 3] is reported as < 10 nM.

In the case of Cc1ncsc1-c1ccc([C@H](CC(=O)NCCCCCCCCNC(=O)c2nc(N3CCc4cccc(C(=O)Nc5nc6ccccc6s5)c4C3)ccc2-c2cnn(CC34CC5CC(CC(C5)C3)C4)c2C)NC(=O)[C@@H]2C[C@@H](O)CN2C(=O)[C@@H](NC(=O)C2(C#N)CC2)C(C)(C)C)cc1 [degrader #25, 2-(5-(1-(adamantan-1-ylmethyl)-5-methyl-1H-pyrazol-4-yl)-6-((8-((S)-3-((2S,4R)-1-((S)-2-(1-cyanocyclopropane-1-carboxamido)-3,3-dimethylbutanoyl)-4-hydroxypyrrolidine-2-carboxamido)-3-(4-(4-methylthiazol-5-yl)phenyl)propanamido)octyl)carbamoyl)pyridin-2-yl)-N-(benzo[d]thiazol-2-yl)-1,2,3,4-tetrahydroisoquninoline-8-carboxamide], the EC50 [1, 4] is reported as 100 to 1000 nM.

In the case of Cc1ncsc1-c1ccc([C@H](C)NC(=O)[C@@H]2C[C@@H](O)CN2C(=O)[C@@H](NC(=O)CCCCCCCS(=O)(=O)NC(=O)c2nc(N3CCc4cccc(C(=O)Nc5nc6ccccc6s5)c4C3)ccc2-c2cc(C#N)n(CC34CC5CC(CC(C5)C3)C4)c2C)C(C)(C)C)cc1 [degrader #18, 2-(5-(1-(adamantan-1-ylmethyl)-5-cyano-2-methyl-1H-pyrrol-3-yl)-6-(((8-(((S)-1-((2S,4R)-4-hydroxy-2-(((S)-1-(4-(4-methylthiazol-5-yl)phenyl)ethyl)carbamoyl)pyrrolidin-1-yl)-3,3-dimethyl-1-oxobutan-2-yl)amino)-8-oxooctyl)sulfonyl)carbamoyl)pyridin-2-yl)-N-(benzo[d]thiazol-2-yl)-1,2,3,4-tetrahydroisoquinoline-8-carboxamide], the EC50 [1, 3] is reported as 10 to 100 nM.

Source: patent publication US12441722B2, “Therapeutic agents and methods of treatment” (University of Florida Research Foundation, Incorporated, priority 2020, dated 2025)
